The values that follow are results of earlier work, collected in the PKSmart pharmacokinetics tables (Seal et al. 2025).

A short description of this series: Lombardo, Berellini, Obach 2018, Drug Metab Dispos 46:1466, doi 10.1124/dmd.118.082966. To be noted: human; for MRT / Vd / clearance / half-life: in vivo, iv; for fraction unbound: plasma.

Each structure is given as a SMILES string.

In the case of `CCC(=O)NCC[C@@H]1CCc2ccc3c(c21)CCO3`, the MRT (in general, the average time that molecules of a dose stay in the body) is 1.3 h; the Vd (usually the apparent volume that relates the amount in the body to the concentration in plasma or blood) is 1.05 L/kg; the clearance (usually a measure of how efficiently the substance is removed, as volume per time) was 13.1 mL/min/kg; the half-life – broadly, the time needed for the level to fall by half in the phase considered – is 1.9 h. The fraction unbound (commonly free concentration divided by total concentration) is 0.2.

For `Cc1ncc(CO)c(CO)c1O`, the MRT is 1.38 h, the Vd was 0.66 L/kg, the clearance was 7.9 mL/min/kg and the half-life was 0.98 h.

With `O=C(/C=C/c1ccc(O)c2c1C(C(=O)OC(Cc1ccc(O)c(O)c1)C(=O)O)[C@@H](c1ccc(O)c(O)c1)O2)OC(Cc1ccc(O)c(O)c1)C(=O)O` (some centres not stated), the MRT is 0.42 h, the Vd is 0.14 L/kg, the clearance was 7.17 mL/min/kg and the half-life is 0.29 h. The fraction unbound was 0.08.

Consider `Cc1cc(F)ccc1[C@H]1CNCCN1C(=O)N(C)[C@H](C)c1cc(C(F)(F)F)cc(C(F)(F)F)c1`, for which the MRT is 12.8 h, the Vd was 3.8 L/kg, the clearance is 5.09 mL/min/kg and the half-life was 10 h.

For `C#C[C@]1(O)CC[C@H]2[C@@H]3CCC4=Cc5oncc5C[C@]4(C)[C@H]3CC[C@@]21C`, the MRT is 5.49 h, the Vd is 5.18 L/kg, the clearance was 15.7 mL/min/kg and the half-life was 2.31 h.

On to `C[C@H](CCC(=O)O)[C@H]1CC[C@H]2[C@@H]3[C@H](O)C[C@@H]4C[C@H](O)CC[C@]4(C)[C@H]3CC[C@]12C`, for which the MRT was 0.57 h, the Vd is 0.19 L/kg, the clearance is 5.7 mL/min/kg and the half-life was 1.42 h.

For the compound `C=C1CC[C@@H]2[C@](C)(COC(=O)CCC(=O)O)[C@H](OC(=O)CCC(=O)O)CC[C@@]2(C)[C@@H]1/C=C/C1=CCOC1=O`, the MRT was 1 h, the Vd was 0.13 L/kg, the clearance is 2 mL/min/kg and the half-life was 1.9 h.

Turning to `CN(C)CCN(Cc1cccs1)c1ccccn1`, the MRT is 2 h, the Vd is 3.3 L/kg, the clearance is 28 mL/min/kg and the half-life is 1.6 h.

For the compound `CC(=O)[C@]1(O)Cc2c(O)c3c(c(O)c2[C@@H](O[C@H]2C[C@H](N4CC4)[C@H](OS(C)(=O)=O)[C@H](C)O2)C1)C(=O)c1ccccc1C3=O`, the MRT was 2.09 h, the Vd was 2.95 L/kg, the clearance is 23.5 mL/min/kg and the half-life was 7.33 h. In addition, the fraction unbound was 0.006.

For the compound `CNC(=O)Oc1ccc2c(c1)[C@@]1(C)CCN(C)[C@@H]1N2C`, the MRT was 0.9 h, the Vd was 3.9 L/kg, the clearance was 72 mL/min/kg and the half-life was 1 h. The fraction unbound was 0.64.

`CCN[C@@H]1C[C@H](N)[C@@H](O[C@H]2OC(CN)=CC[C@H]2N)[C@H](O)[C@H]1O[C@H]1OC[C@](C)(O)[C@H](NC)[C@H]1O`: the MRT was 2.2 h, the Vd is 0.073 L/kg, the clearance is 0.55 mL/min/kg and the half-life was 3.2 h. Also, the fraction unbound is 1.

For the compound `CC[C@]1(O)C[C@@H]2CN(CCc3c([nH]c4ccccc34)[C@@](C(=O)OC)(c3cc4c(cc3OC)N(C)[C@H]3[C@@](O)(C(=O)OC)[C@H](OC(C)=O)[C@]5(CC)C=CCN6CC[C@]43[C@@H]65)C2)C1`, the MRT is 150 h, the Vd was 28 L/kg and the half-life was 67 h.

Consider `Cn1cc(C(=O)C2CCc3[nH]cnc3C2)c2ccccc21` (configuration not stated), for which the MRT was 6.28 h, the distribution volume (Vd) was 2.65 L/kg, the clearance was 7.03 mL/min/kg and the half-life is 4.94 h.

Consider `C[C@@H]([C@@H](O)c1ccc(O)cc1)N1CCC(O)(c2ccccc2)CC1`, for which the MRT is 2.6 h, the Vd was 4.4 L/kg, the clearance was 27 mL/min/kg and the half-life was 3.7 h. In addition, the fraction unbound was 0.63.

As for `O=C(O)C1N=C(c2ccccc2)c2cc(Cl)ccc2NC1=O` (configuration not stated), the MRT was 3 h, the Vd is 0.2 L/kg, the clearance was 1.1 mL/min/kg and the half-life was 2.4 h.

In the case of `Cc1cc(C)c2c(c1)[C@@H](N(Cc1cc(C(F)(F)F)cc(C(F)(F)F)c1)c1nnn(C)n1)CCCN2CC1CCC(C(=O)O)CC1` (some centres not stated), the MRT is 36.1 h, the Vd was 1.82 L/kg, the clearance was 0.84 mL/min/kg and the half-life is 51.9 h. Also, the fraction unbound was 0.001.

As for `C[C@@](O)(/C=C/[C@H]1CC=CC(=O)O1)[C@@H](C[C@@H](O)\C=C/C=C\C=C\CO)OP(=O)(O)O`, the MRT is 1.2 h, the volume of distribution (Vd) was 0.086 L/kg, the clearance was 1.2 mL/min/kg and the half-life is 1.5 h.

Consider `N#Cc1ccc2[nH]cc(CCCCN3CCN(c4ccc5oc(C(N)=O)cc5c4)CC3)c2c1`, for which the MRT was 21.5 h, the Vd is 4.85 L/kg, the clearance is 3.76 mL/min/kg and the half-life was 15.7 h. For the same compound, the free fraction (fraction unbound) was 0.03.

`O=c1[nH]c2ccccc2n1CCCN1CCC(n2c(=O)[nH]c3cc(Cl)ccc32)CC1`: the MRT is 6 h, the Vd is 3.4 L/kg and the clearance is 9.5 mL/min/kg.

`CCNC(=O)C1C[C@@H](n2ccc3c(N[C@H](CC)Cc4sccc4Cl)ncnc32)[C@H](O)[C@@H]1O` (some centres not stated): the mean residence time MRT was 1.18 h, the Vd was 0.84 L/kg, the clearance is 12 mL/min/kg and the half-life is 1.33 h. In addition, the fraction unbound was 0.03.

Take `O=C(O[C@H]1CN2CCC1CC2)N1CCc2ccccc2[C@@H]1c1ccccc1`: the MRT was 65 h, the Vd is 8.2 L/kg and the half-life was 52 h.

Consider `O=C(NCCO[N+](=O)[O-])c1cccnc1`, for which the MRT was 2.7 h, the Vd was 1.4 L/kg, the clearance was 8.9 mL/min/kg and the half-life was 3.6 h. Besides, the fraction unbound is 0.76.

On to `CC(=O)NC[C@H]1CN(c2ccc(N3CCOCC3)c(F)c2)C(=O)O1`, for which the MRT was 5.4 h, the Vd was 0.58 L/kg, the clearance is 1.8 mL/min/kg and the half-life is 4.5 h.

Take `CC[C@]1(O)C[C@@H]2CN(CCc3c([nH]c4ccccc34)[C@@](C(=O)OC)(c3cc4c(cc3OC)N(C=O)[C@H]3[C@@](O)(C(=O)OC)[C@H](OC(C)=O)[C@]5(CC)C=CCN6CC[C@]43[C@@H]65)C2)C1`: the MRT is 20 h, the Vd is 2.4 L/kg, the clearance is 2 mL/min/kg and the half-life was 23 h.

Take `CC(=O)Nc1c(I)c(C(=O)O)c(I)c(N(C)C(C)=O)c1I`: the MRT is 1 h, the Vd was 0.17 L/kg, the clearance is 2.7 mL/min/kg and the half-life is 1.3 h. The fraction unbound is 1.

Turning to `N#C[C@H]1CC2C[C@H]2N1C(=O)C(N)C12CC3CC(CC(O)(C3)C1)C2` (some centres not stated), the MRT is 4.1 h, the Vd is 1.8 L/kg, the clearance is 7.1 mL/min/kg and the half-life was 7.5 h. The fraction unbound was 1.

For the compound `O=P(O)(O)C(NC1CCCCCC1)P(=O)(O)O`, the MRT was 1.85 h, the Vd is 0.24 L/kg, the clearance is 2.16 mL/min/kg and the half-life is 1.82 h. The fraction unbound is 0.9.

On to `CC(=O)NC(CSSCC(N)C(=O)O)C(=O)NC(C)C(=O)NC(CCCNC(=N)N)C(=O)NC(CCCNC(=N)N)C(=O)NC(CCCNC(=N)N)C(=O)NC(C)C(=O)NC(CCCNC(=N)N)C(N)=O` (configuration not stated), for which the mean residence time (MRT) was 19.9 h, the Vd is 1.98 L/kg and the clearance was 1.67 mL/min/kg.

For `CC(C)NCC(O)c1ccc(O)c(O)c1` (configuration not stated), the MRT is 0.43 h, the Vd was 1.5 L/kg, the clearance is 56 mL/min/kg and the half-life is 0.41 h. Moreover, the fraction unbound was 0.71.

For the compound `Nc1nc(N/N=C/C2CCCCC2)nc2c1ncn2[C@@H]1O[C@H](CO)[C@@H](O)[C@H]1O`, the MRT was 0.19 h, the Vd is 0.4 L/kg, the clearance was 35.8 mL/min/kg and the half-life was 0.21 h.

`COc1cc(NC(C)CCCN)c2ncccc2c1` (configuration not stated): the MRT is 11 h, the Vd is 4 L/kg, the clearance was 5.8 mL/min/kg and the half-life was 7.1 h.

For the compound `NCC(=O)CCC(=O)O`, the MRT is 1.06 h, the Vd is 0.12 L/kg, the clearance is 1.88 mL/min/kg and the half-life was 0.83 h. For the same compound, the fraction unbound was 0.88.

As to `CCOc1ccccc1O[C@H](c1ccccc1)[C@H]1CNCCO1`, the MRT is 13 h, the Vd is 0.65 L/kg, the clearance was 0.82 mL/min/kg and the half-life was 10 h.

As for `O=C(NCCN1CCN=C1c1ccncc1)Nc1ccc(C(=O)O)cc1`, the MRT is 3.52 h, the Vd is 0.35 L/kg, the clearance is 1.67 mL/min/kg and the half-life was 4.9 h.
